In publication PMC8151276, “An Integrated Approach toward NanoBRET Tracers for Analysis of GPCR Ligand Engagement” (Molecules, 2021):

What was measured:
[1] = target: T1, P2RY8 (Homo sapiens, UniProt Q86VZ1); experiment: NanoBRET screen HiBiT-P2RY8 in HEK293; type: binding
T1 construct: purchased Promega (in-house HiBiT-GPCR construct library, NanoBRET)
Protocol: (§1) Each tracer candidate was screened across the entire library of HiBiT-GPCR constructs using NanoBRET as the detection modality. As depicted in Figure 4A, the specificity of interactions was evaluated through decrease in BRET due to competitive displacement of a bound tracer by excess parental compound. Each tracer was analyzed for binding to each HiBiT-GPCR fusion in the absence and in the presence of competing parental compound. Briefly, HEK293 cells were transfected with HiBiT-GPCR constructs diluted into promoterless DNA to reduce expression and maximize translocation to the cell surface. Each tracer candidate was then screened at concentrations of 1 μM and 0.1 μM across cells expressing these fusions. Cells were treated for 1.5 h with tracer either alone or in the presence of 20 μM competing parental compound (i.e., control). BRET was measured upon addition of purified LgBiT and subsequent complementation with HiBiT genetically fused to a GPCR. The specificity of interactions was assessed through a decrease in BRET signal due to competitive displacement of the bound tracer. To further gauge the robustness of these interactions, the fold response over the control (i.e., BRETtracer/BRETcontrol) was calculated. We chose a 1.5-fold response, which translates to ≥7-fold signal over noise as the minimal threshold required to score an interaction as positive.
(§2) HiBiT-GPCR DNA constructs were diluted in 10 mM Tris pH 8 to a final concentration of 0.01 μg/μL, arrayed in 96-well plates and stored at −20 °C. For transfection, HEK293 cells were suspended in Opti-MEM (without phenol red) supplemented with 2% fetal bovine serum (Seradigm) and 100 units/mL penicillin–streptomycin (Gibco) at a final concentration of 220,000 cells/mL and dispensed into white 96-well plates at 90 μL/well. Subsequent transfections and screens were carried using an Agilent Bravo Automated Liquid Handling Platform. First, the 96-well HiBiT DNA arrays were diluted 25-fold in Opti-MEM (without serum or phenol red) to a final concentration of 0.0004 μg/μL and 20 μL of the diluted DNAs were transferred into new 96-well plates. Next, promoterless carrier DNA (1 μg/μL) was diluted 25-fold (0.04 μg/μL) and then dispensed into the diluted arrays at 20 μL/well. Following brief mixing, Viafect transfection reagent (Promega) diluted 16-fold into Opti-MEM was dispensed into the plates at 40 μL/well. After mixing by pipetting, plates were incubated for 10 min on the pipetting station deck. The DNA-transfection reagent complexes were then added to plates containing cells. To facilitate the screen, 10 μL of DNA-transfection reagent complexes were added in duplicates to the top 4 and bottom 4 rows, resulting in two identical 48-well arrays per plate. Plates with transfected cells were incubated for 18–20 h at 37 °C/5% CO2. A screen of each tracer across the entire library using two different concentrations requires duplicate plates of transfected cells. Depending on the number of tracers being screened, transfections can be scaled up using the same ratios. The next day, for each tracer, four 20× screening solutions in tracer dilution buffer (Promega) were prepared: two duplicates at final concentration of 20 μM and two duplicates at a final concentration of 2 μM. […] The four resulting solutions were diluted 4-fold in Opti-MEM without serum or phenol red to generate 5× solutions (5 µM and 0.5 µM tracer +/− 100 μM competing compound). To screen the library, a BioTek MultiFlo FX liquid dispenser was used to dispense 22.5 µL of tracer solution to the top 4 rows and 22.5 µL tracer + competing compound solution to the 4 bottom rows. Plates were briefly mixed on an orbital shaker and incubated for 1.5 h at room temperature. […] Plates were briefly mixed on an orbital shaker and incubated for 15 min to allow complementation.

[2] = target: T2, NPY4R (Homo sapiens, UniProt P50391); experiment: NanoBRET screen HiBiT-NPY4R in HEK293; type: binding
T2 construct: purchased Promega (in-house HiBiT-GPCR construct library, NanoBRET)
Protocol: as §1, §2

[3] = tracer at 1μM, listed as amitriptyline-b-2-NB590

T1 sequence (Q86VZ1 whole entry): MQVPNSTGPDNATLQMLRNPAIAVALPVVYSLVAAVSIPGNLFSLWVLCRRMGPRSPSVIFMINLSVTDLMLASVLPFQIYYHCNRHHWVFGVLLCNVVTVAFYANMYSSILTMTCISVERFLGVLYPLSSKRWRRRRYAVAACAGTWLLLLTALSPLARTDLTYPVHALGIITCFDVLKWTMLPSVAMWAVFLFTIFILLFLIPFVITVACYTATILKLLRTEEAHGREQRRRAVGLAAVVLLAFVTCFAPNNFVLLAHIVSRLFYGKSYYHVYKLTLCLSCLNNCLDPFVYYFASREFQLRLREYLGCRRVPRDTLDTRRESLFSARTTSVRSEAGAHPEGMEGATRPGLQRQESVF
T2 sequence (P50391 whole entry): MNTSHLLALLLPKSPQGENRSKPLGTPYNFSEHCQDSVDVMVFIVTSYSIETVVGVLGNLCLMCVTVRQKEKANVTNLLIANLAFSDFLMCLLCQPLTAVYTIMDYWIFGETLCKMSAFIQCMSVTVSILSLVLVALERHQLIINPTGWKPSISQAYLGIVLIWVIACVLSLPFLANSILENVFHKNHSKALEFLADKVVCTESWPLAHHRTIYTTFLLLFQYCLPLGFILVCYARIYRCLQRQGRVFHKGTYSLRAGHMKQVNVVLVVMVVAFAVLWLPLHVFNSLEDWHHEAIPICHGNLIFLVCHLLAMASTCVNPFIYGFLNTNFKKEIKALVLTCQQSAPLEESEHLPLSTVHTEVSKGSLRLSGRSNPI

SMILES | NanoBRET Fold Response ([1]; P2RY8, tracer 0.1μM) | NanoBRET Fold Response ([1]; P2RY8, tracer 1μM) | NanoBRET Fold Response ([2]; NPY4R, tracer 0.1μM) | NanoBRET Fold Response ([2]; NPY4R, tracer 1μM) | further results
CCOC(=O)c1cc(C#N)c(N2CCC(C(=O)NS(=O)(=O)Cc3ccccc3/C=C/C(=O)NCCNC(=O)CCc3ccc4n3[B-](F)(F)[N+]3=C(c5ccc[nH]5)C=CC3=C4)CC2)nc1C [AZD1283-1-NB590] |  |  |  |  | NanoBRET Fold Response ([1]; P2RY8, 0.1μM): 1.56; NanoBRET Fold Response ([1]; P2RY8, 1μM): 1.89; NanoBRET Fold Response ([2]; NPY4R, 0.1μM): 1.02; NanoBRET Fold Response ([2]; NPY4R, 1μM): 1.03
N#CN=C(NCCCOc1cccc(CN2CCCCC2)c1)NCCNC(=O)CCOCCOCCOCCOCCNC(=O)CCc1ccc2n1[B-](F)(F)[N+]1=C(c3ccc[nH]3)C=CC1=C2 [Aminopotentidine-2-NB590] | 1.06 | 1.02 | 1.01 | 0.98 | 
CN(C)CCC=C1c2ccccc2CCc2ccc(C(=O)NCCNC(=O)CCOCCOCCOCCOCCNC(=O)CCc3ccc4n3[B-](F)(F)[N+]3=C(c5ccc[nH]5)C=CC3=C4)cc21 [Amitriptyline-a-2-NB590] |  |  |  |  | NanoBRET Fold Response ([1]; tracer at 0.1μM): 1.05; NanoBRET Fold Response ([1]; tracer at 1μM): 0.90; NanoBRET Fold Response ([2]; tracer at 0.1μM): 1.11; NanoBRET Fold Response ([2]; tracer at 1μM): 0.96
CN(C)CCC=C1c2ccccc2CCc2ccc(C(=O)NCCNC(=O)CCOCCOCCOCCOCCNC(=O)CCc3ccc4n3[B-](F)(F)[N+]3=C(c5ccc[nH]5)C=CC3=C4)cc21 [Amitriptyline-b-2-NB590] |  |  |  |  | NanoBRET Fold Response ([1]; tracer at 0.1μM, listed as amitriptyline-b-2-NB590): 0.88; NanoBRET Fold Response [1, 3]: 1.07; NanoBRET Fold Response [2, 3]: 1.03
CN(CCC=C1c2ccccc2CCc2ccccc21)C(=O)CCOCCOCCOCCOCCNC(=O)CCc1ccc2n1[B-](F)(F)[N+]1=C(c3ccc[nH]3)C=CC1=C2 [Amitriptyline-e-2-NB590] |  |  |  |  | NanoBRET Fold Response ([1]; tracer at 1μM): 0.99
COc1ccc2c(n1)c(CCNC(C)=O)cn2CCNC(=O)CCc1ccc2n1[B-](F)(F)[N+]1=C(c3ccc[nH]3)C=CC1=C2 [Azamelatonin-1-NB590] |  |  |  |  | NanoBRET Fold Response ([1]; 0.1μM tracer): 1.30; NanoBRET Fold Response ([1]; 1μM tracer): 1.30; NanoBRET Fold Response ([2]; 0.1μM tracer): 1.11; NanoBRET Fold Response ([2]; 1μM tracer): 1.08
COc1ccc2[nH]c(-c3ccc(CNC(=O)CCOCCOCCOCCOCCNC(=O)CCc4ccc5n4[B-](F)(F)[N+]4=C(c6ccc[nH]6)C=CC4=C5)cc3)c(CCNC(C)=O)c2n1 [AzomelatoninICO9-2-NB590] |  |  |  |  | NanoBRET Fold Response ([1]; 0.1μM tracer): 1.14; NanoBRET Fold Response ([1]; 1μM tracer): 1.05; NanoBRET Fold Response ([2]; 0.1μM tracer): 1.11; NanoBRET Fold Response ([2]; 1μM tracer): 0.94
O=C(CCOCCOCCOCCOCCNC(=O)CCc1ccc2n1[B-](F)(F)[N+]1=C(c3ccc[nH]3)C=CC1=C2)NCCCN1CCN(C2=Nc3cc(Cl)ccc3Nc3ccccc32)CC1 [Clozapine-a-2-NB590] |  |  |  |  | NanoBRET Fold Response ([1]; P2RY8, 0.1μM tracer): 0.97; NanoBRET Fold Response ([1]; P2RY8, 1μM tracer): 0.96; NanoBRET Fold Response ([2]; NPY4R, 0.1μM tracer): 0.88; NanoBRET Fold Response ([2]; NPY4R, 1μM tracer): 1.40
CN1CCN(C2=Nc3cc(Cl)ccc3Nc3ccc(CNC(=O)CCOCCOCCOCCOCCNC(=O)CCc4ccc5n4[B-](F)(F)[N+]4=C(c6ccc[nH]6)C=CC4=C5)cc32)CC1 [Clozapine-b-2-NB590] |  |  |  |  | NanoBRET Fold Response ([1]; P2RY8, 0.1μM tracer): 0.97; NanoBRET Fold Response ([1]; P2RY8, 1μM tracer): 0.93; NanoBRET Fold Response ([2]; NPY4R, 0.1μM tracer): 1.02; NanoBRET Fold Response ([2]; NPY4R, 1μM tracer): 1.08
CN1CCN(C2=Nc3cc(Cl)ccc3N(CC(=O)NCCOCCOCCOCCOCCNC(=O)CCc3ccc4n3[B-](F)(F)[N+]3=C(c5ccc[nH]5)C=CC3=C4)c3ccccc32)CC1 [Clozapine-c-2-NB590] |  |  |  |  | NanoBRET Fold Response ([1]; P2RY8, 0.1μM tracer): 1.05; NanoBRET Fold Response ([1]; P2RY8, 1μM tracer): 0.79
O=C(CCOCCOCCOCCOCCNC(=O)CCc1ccc2n1[B-](F)(F)[N+]1=C(c3ccc[nH]3)C=CC1=C2)NCCCN1CCN(C2=Nc3ccccc3Oc3ccc(Cl)cc32)CC1 [Loxapine-a-2-NB590] | 0.95 | 0.87 | 0.99 | 1.10 | 
COc1ccccc1N1CCN(CCCCN2C(=O)c3ccc(CNC(=O)CCOCCOCCOCCOCCNC(=O)CCc4ccc5n4[B-](F)(F)[N+]4=C(c6ccc[nH]6)C=CC4=C5)cc3C2=O)CC1 [NAN-190-2-NB590] | 0.99 | 1.14 | 0.95 | 1.04 | 
COc1ccccc1N1CCN(CCCCN2C(=O)c3ccc(CNC(=O)CCOCCNC(=O)c4ccc(CNC(=O)CCc5ccc6n5[B-](F)(F)[N+]5=C(c7ccc[nH]7)C=CC5=C6)cc4)cc3C2=O)CC1 [NAN-190-3-NB590] | 1.21 | 1.12 | 1.06 | 0.95 | 
O=C(CCc1ccc2n1[B-](F)(F)[N+]1=C(c3ccc[nH]3)C=CC1=C2)NCc1ccc(C(=O)NCCOCCC(=O)N[C@@H]2CC[C@@]3(O)[C@H]4Cc5ccc(O)c6c5[C@@]3(CCN4CC3CC3)[C@H]2O6)cc1 [Naltrexone-3-NB590] | 0.86 | 0.47 | 1.04 | 0.91 | 
Cc1cc2c(s1)Nc1ccccc1N=C2N1CCN(CCCNC(=O)CCOCCOCCOCCOCCNC(=O)CCc2ccc3n2[B-](F)(F)[N+]2=C(c4ccc[nH]4)C=CC2=C3)CC1 [Olanzapine-a-2-NB590] |  | 1.13 | 1.01 | 0.91 | 
O=C(CCc1ccc2n1[B-](F)(F)[N+]1=C(c3ccc[nH]3)C=CC1=C2)NCc1ccc(C(=O)NCCOCCOCCNCC(O)COc2cccc3ccccc23)cc1 (centres unmarked) [Propranolol-3-NB590] |  |  |  |  | NanoBRET Fold Response ([1]; P2RY8, 0.1μM): 1.11; NanoBRET Fold Response ([1]; P2RY8, 1μM): 1.00; NanoBRET Fold Response ([2]; NPY4R, 0.1μM): 0.98; NanoBRET Fold Response ([2]; NPY4R, 1μM): 0.99
O=C(CCc1ccc2n1[B-](F)(F)[N+]1=C(c3ccc[nH]3)C=CC1=C2)NCCOCCOCCNC(=O)OCCOCCN1CCN(C2=Nc3ccccc3Sc3ccccc32)CC1 [Quetiapine-a-2-NB590] | 0.94 | 0.88 | 1.06 | 0.73 | 
Cc1nc2n(c(=O)c1CCN1CCC(c3noc4cc(F)ccc34)CC1)CCCC2OC(=O)NCCOCCOCCOCCOCCNC(=O)CCc1ccc2n1[B-](F)(F)[N+]1=C(c3ccc[nH]3)C=CC1=C2 (centres unmarked) [Risperidone-2-NB590] | 1.06 | 0.96 | 0.95 | 1.02 | 
CC(C)N(CC[C@H](c1ccccc1)c1cc(CCNC(=O)CCOCCOCCOCCOCCNC(=O)CCc2ccc3n2[B-](F)(F)[N+]2=C(c4ccc[nH]4)C=CC2=C3)ccc1O)C(C)C [Tolterodine-2-NB590] | 1.06 | 1.22 | 0.86 | 1.09 | 
CC(C)N(CC[C@H](c1ccccc1)c1cc(CCNC(=O)c2ccc(CNC(=O)CCc3ccc4n3[B-](F)(F)[N+]3=C(c5ccc[nH]5)C=CC3=C4)cc2)ccc1O)C(C)C [Tolterodine-BZ-NB590] | 0.96 | 1.01 | 0.88 | 0.98 | 
CCCn1c(=O)c2[nH]c(-c3ccc(OCC(=O)NCCNC(=O)CCOCCNC(=O)c4ccc(CNC(=O)CCc5ccc6n5[B-](F)(F)[N+]5=C(c7ccc[nH]7)C=CC5=C6)cc4)cc3)nc2n(CCC)c1=O [XAC-3-NB590] | 1.30 | 0.83 | 0.97 | 0.86 | 
